The subject of this assay is GFP-SOD1 mutant aggregation, cell imaging. Briefly: inhibitors of mutant SOD1 aggregation, cell-based (AID 1613).

The compound `CC[C@@]1(O)C(=O)OCc2c1cc1n(c2=O)Cc2cc3ccccc3nc2-1` displayed an EC50 of 15 µM.
Under `CO[C@H]1[C@H](O)[C@H](O[C@H]2CC[C@]3(C)C4CC[C@]5(C)C(C6=CC(=O)OC6)CC[C@]5(O)C4CC[C@@H]3C2)O[C@@H](C)[C@@H]1O` (some centres undefined) stands 5 µM; under `COc1ccc(C[C@H]2NC[C@H](O)[C@H]2OC(C)=O)cc1`, 2 µM.
As to `CO[C@H]1[C@H](O)[C@@H](O[C@H]2CC[C@]3(C=O)C4CC[C@]5(C)[C@@H](C6=CC(=O)OC6)CC[C@]5(O)C4CC[C@@H]3C2)O[C@@H](C)[C@@H]1O` (some centres undefined), the EC50 came to 5 µM.
`CC[C@H]1CN2CCc3cc(OC)c(OC)cc3C2C[C@@H]1CC1NCCc2cc(OC)c(OC)cc21` (some centres undefined) showed an EC50 of 5 µM.
`CCN(CC)CCNc1ccc(CO)c2sc3ccccc3c(=O)c12` displayed an EC50 of 20 µM.
`C[C@@H]1C[C@@H]([C@H](O)CC2CC(=O)NC(=O)C2)C(=O)[C@@H](C)C1` yielded an EC50 of 2 µM.
Under `CC(=O)O[C@H]1C(=O)[C@@]2(C)C([C@H](OC(=O)c3ccccc3)[C@]3(O)C[C@H](OC(=O)[C@H](O)[C@@H](NC(=O)c4ccccc4)c4ccccc4)C(C)=C1C3(C)C)[C@]1(OC(C)=O)CO[C@@H]1C[C@@H]2O` (some centres undefined) stands 5 µM; under `O=C1c2c(O)ccc(O)c2C(=O)c2c(NCCNCCO)ccc(NCCNCCO)c21`, 5 µM.
Under `CC(=O)O[C@H]1C[C@H](O[C@H]2[C@@H](O)C[C@H](O[C@H]3[C@@H](O)C[C@H](O[C@H]4CC[C@@]5(C)C(CCC6C5C[C@@H](O)[C@]5(C)[C@@H](C7=CC(=O)OC7)CC[C@]65O)C4)O[C@@H]3C)O[C@@H]2C)O[C@H](C)[C@H]1O[C@@H]1O[C@H](CO)[C@@H](O)[C@H](O)[C@H]1O` (some centres undefined) stands 5 µM.
The compound `C[n+]1c2cc(N)ccc2cc2ccc(N)cc21` returned an EC50 of 10 µM.
For the compound `C[C@H]1O[C@@H](O[C@H]2[C@@H](O)C[C@H](O[C@H]3[C@@H](O)C[C@H](O[C@H]4CC[C@]5(C)C6CC[C@]7(C)[C@@H](C8=CC(=O)OC8)CC[C@]7(O)C6CC[C@@H]5C4)O[C@@H]3C)O[C@@H]2C)C[C@H](O)[C@@H]1O` (some centres undefined), the EC50 was determined as 20 µM.
Under `C[C@]12CCC3C(CC[C@]4(O)C[C@@H](O)CC[C@]34C=O)[C@@]1(O)CCC2C1=CC(=O)OC1` (some centres undefined) stands 5 µM; under `C[C@H]1O[C@@H](O[C@H]2[C@@H](O)C[C@H](O[C@H]3[C@@H](O)C[C@H](O[C@H]4CC[C@]5(C)C6C[C@@H](O)[C@]7(C)[C@@H](C8=CC(=O)OC8)CC[C@]7(O)C6CC[C@@H]5C4)O[C@@H]3C)O[C@@H]2C)C[C@H](O)[C@@H]1O` (some centres undefined), 20 µM.

The EC50 is the concentration giving half of the maximal effect.
